From US20250289790A1, “UV LIGHT STABILIZERS” (BASF SE, priority 2022, published 2025)

Assay: Solubility at room temperature in xylene / toluene
Type: physicochemical

soluble in xylene: less than 1% | Solubility at room temperature [g] xylene (room temperature): 2 g
SMILES: CC(C)(C)c1cc(CCC(=O)OCC(COC(=O)CCc2cc(-n3nc4ccc(Cl)cc4n3)c(O)c(C(C)(C)C)c2)(COC(=O)CCc2cc(-n3nc4ccc(Cl)cc4n3)c(O)c(C(C)(C)C)c2)COC(=O)CCc2cc(-n3nc4ccc(Cl)cc4n3)c(O)c(C(C)(C)C)c2)cc(-n2nc3ccc(Cl)cc3n2)c1O [Example C3]
